Data published in paper PMC5663982, “Imaging the Antistaphylococcal Activity of CATH-2: Mechanism of Attack and Regulation of Inflammatory Response” (mSphere, 2017).

Biological target: T1, CATH-2 (chicken cathelicidin-2) (Gallus gallus, UniProt Q2IAL7)
T1 construct: gene CATHL2; Fmoc synthesis, unlabelled; cut from the cathelicidin-2 precursor
T1 sequence (Q2IAL7 128-153): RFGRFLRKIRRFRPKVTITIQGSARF
Test: isothermal titration calorimetry
Format: binding
Conditions: PBS, 1.5% ethanol, 20 °C; 400 µM CATH-2 titrated into 200 µM cardiolipin (Sigma-Aldrich, source and acyl chains not told); n = 2, SEM; lipid suspension
Description: isothermal titration calorimetry on CATH-2 (chicken cathelicidin-2)

Kd: 72.1 ± 57.1 nM
Substance: cardiolipin
